From patent publication US11208412B2 (DAEGU-GYEONGBUK MEDICAL INNOVATION FOUNDATION, priority 2017, dated 2021)

biological target: T1, recombinant LRRK2 kinase (Homo sapiens, UniProt Q5S007); assay: LRRK2 kinase inhibition (Kinase-Glo luminescence); type: biochemical; details: IC50 grade; 25 μmol/L ATP, LRRKtide, 30° C. 2 hours; read-out: Enzyme activity LRRK2
T1 construct: purchased Signal Chem, Richmond, BC, Canada
Method: Upon completion of the reaction, an equal amount of Kinase-Glo (Promega, Madison, Wis.) solution was added thereto, followed by reaction for 40 minutes. A detection solution was added thereto, followed by further reaction at room temperature for 30 minutes. Then, IC50 of kinase was calculated by measuring the amount of luciferase using a microplate ELISA reader (Bio-Tek).

T1 sequence (Q5S007 whole entry): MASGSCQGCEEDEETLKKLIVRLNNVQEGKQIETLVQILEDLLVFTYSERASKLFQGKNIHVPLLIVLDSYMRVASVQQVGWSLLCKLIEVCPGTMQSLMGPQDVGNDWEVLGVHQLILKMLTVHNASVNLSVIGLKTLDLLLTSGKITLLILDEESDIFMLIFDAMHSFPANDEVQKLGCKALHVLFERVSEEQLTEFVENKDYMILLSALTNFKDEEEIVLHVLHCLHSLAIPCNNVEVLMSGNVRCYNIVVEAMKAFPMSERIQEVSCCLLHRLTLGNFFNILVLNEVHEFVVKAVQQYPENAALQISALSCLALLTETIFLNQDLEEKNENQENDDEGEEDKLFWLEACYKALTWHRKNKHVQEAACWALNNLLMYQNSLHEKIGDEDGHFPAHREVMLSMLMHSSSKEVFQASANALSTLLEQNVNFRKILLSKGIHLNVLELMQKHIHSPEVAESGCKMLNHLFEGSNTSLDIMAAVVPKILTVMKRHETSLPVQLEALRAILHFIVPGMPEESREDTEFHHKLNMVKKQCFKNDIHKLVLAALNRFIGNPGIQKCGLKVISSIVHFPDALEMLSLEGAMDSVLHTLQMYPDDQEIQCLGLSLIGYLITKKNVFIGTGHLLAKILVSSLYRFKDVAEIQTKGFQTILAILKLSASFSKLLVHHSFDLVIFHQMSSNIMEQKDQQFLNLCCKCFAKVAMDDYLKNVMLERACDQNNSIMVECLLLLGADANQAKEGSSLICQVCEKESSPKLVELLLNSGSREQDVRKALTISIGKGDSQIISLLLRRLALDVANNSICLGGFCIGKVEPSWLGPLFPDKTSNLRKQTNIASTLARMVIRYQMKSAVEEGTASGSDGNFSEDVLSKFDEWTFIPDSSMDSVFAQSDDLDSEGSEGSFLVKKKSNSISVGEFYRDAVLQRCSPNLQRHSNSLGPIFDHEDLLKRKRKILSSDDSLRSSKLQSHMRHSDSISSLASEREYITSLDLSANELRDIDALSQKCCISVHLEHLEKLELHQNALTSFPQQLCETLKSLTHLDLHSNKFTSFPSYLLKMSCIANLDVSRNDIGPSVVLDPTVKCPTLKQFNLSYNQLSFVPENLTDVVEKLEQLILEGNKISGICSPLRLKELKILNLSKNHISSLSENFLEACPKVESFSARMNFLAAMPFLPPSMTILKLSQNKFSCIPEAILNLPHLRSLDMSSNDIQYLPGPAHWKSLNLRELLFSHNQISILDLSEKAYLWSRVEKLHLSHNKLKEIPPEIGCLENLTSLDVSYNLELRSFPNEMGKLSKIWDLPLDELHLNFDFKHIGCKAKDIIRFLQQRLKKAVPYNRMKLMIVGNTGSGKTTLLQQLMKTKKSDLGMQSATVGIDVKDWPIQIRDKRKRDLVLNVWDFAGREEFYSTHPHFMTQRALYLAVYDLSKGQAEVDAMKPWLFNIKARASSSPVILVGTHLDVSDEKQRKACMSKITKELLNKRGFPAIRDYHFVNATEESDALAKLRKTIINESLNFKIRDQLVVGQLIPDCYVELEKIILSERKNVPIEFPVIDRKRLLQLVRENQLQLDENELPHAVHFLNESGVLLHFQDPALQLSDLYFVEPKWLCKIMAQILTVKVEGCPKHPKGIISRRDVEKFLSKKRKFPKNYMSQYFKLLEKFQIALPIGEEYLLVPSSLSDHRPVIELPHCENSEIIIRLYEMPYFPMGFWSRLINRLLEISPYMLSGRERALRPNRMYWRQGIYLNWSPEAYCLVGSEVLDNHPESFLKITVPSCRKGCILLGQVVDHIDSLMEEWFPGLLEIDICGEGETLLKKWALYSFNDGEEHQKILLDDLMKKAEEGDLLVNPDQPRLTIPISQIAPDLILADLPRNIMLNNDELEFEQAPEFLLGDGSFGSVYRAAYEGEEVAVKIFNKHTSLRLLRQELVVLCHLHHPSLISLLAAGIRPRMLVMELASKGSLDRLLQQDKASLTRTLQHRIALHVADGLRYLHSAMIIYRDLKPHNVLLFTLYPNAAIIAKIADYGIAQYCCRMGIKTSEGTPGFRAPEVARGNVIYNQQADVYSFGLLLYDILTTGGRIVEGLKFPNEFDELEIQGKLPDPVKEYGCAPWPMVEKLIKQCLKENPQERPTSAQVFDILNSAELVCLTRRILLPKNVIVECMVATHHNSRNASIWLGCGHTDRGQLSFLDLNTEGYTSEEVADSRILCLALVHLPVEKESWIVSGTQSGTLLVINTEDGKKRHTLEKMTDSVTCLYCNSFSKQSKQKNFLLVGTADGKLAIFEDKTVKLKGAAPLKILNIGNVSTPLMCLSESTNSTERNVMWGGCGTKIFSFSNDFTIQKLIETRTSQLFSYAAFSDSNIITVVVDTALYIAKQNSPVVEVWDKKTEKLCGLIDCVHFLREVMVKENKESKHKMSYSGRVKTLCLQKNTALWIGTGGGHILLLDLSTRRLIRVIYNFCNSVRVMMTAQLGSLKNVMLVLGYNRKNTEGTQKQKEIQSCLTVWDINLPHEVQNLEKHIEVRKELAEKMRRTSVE

Structure (SMILES) | IC50 [nM]
CCNc1nc(Nc2cc3c(cc2OC)N(C)C(=O)C(C)(C)O3)nc2[nH]cc(C(F)(F)F)c12 [Example 137, 7-((4-(ethylamino)-5-(trifluoromethyl)-7H-pyrrolo[2,3-d]pyrimidine-2-yl)amino)-6-methoxy-2,2,4-trimethyl-2H-benzo[1,4]oxazine-3(4H)-one] | > 100
COc1cc(C(=O)N2CCOCC2)ccc1Nc1nc(OC2(C)CC2)c2c(C#N)c[nH]c2n1 [Example 95, 2-((2-methoxy-4-(morpholine-4-carbonyl)phenyl)amino)-4-(1-methylcyclopropoxy)-7H-pyrrolo[2,3-d]pyrimidine-5-carbonitrile] | < 10
CCNc1nc(Nc2cc3c(cc2OC)C(=O)N(C)C3)nc2[nH]cc(C(F)(F)F)c12 [Example 133, 5-((4-(ethylamino)-5-(trifluoromethyl)-7H-pyrrolo[2,3-d]pyrimidine-2-yl)amino)-6-methoxy-2-methylisoindolin-1-one] | < 10
COc1cc(C(=O)NC2CCN(C)CC2)c(F)cc1Nc1nc(NC2(C)CC2)c2c(C#N)c[nH]c2n1 [Example 83, 4-((5-cyano-4-((1-methylcyclopropyl)amino)-7H-pyrrolo[2,3-d]pyrimidine-2-yl)amino)-2-fluoro-5-methoxy-N-(1-methylpiperidine-4-yl)benzamide] | < 10
CNc1nc(Nc2ccc(C(=O)N3CCO[C@H](C)C3)cc2OC)nc2[nH]cc(C#N)c12 [Example 20, (R)-2-((2-methoxy-4-(2-methylmorpholine-4-carbonyl)phenyl)amino)-4-(methylamino)-7H-pyrrolo[2,3-d]pyrimidine-5-carbonitrile] | < 10
CNc1nc(Nc2cc(F)c(C(=O)NC3CCN(C4COC4)CC3)cc2OC)nc2[nH]cc(C#N)c12 [Example 63, 4-((5-cyano-4-(methylamino)-7H-pyrrolo[2,3-d]pyrimidine-2-yl)amino)-2-fluoro-5-methoxy-N-(1-(oxetane-3-pyrrolidine-1-yl)piperidine-4-yl)benzamide] | < 10
COc1cc(C(=O)N2CCC(F)(F)CC2)ccc1Nc1nc(NC2(C)CC2)c2c(C#N)c[nH]c2n1 [Example 45, 2-((4-(4,4-difluoropiperidine-1-carbonyl)-2-methoxyphenyl)amino)-4-((1-methylcyclopropyl)amino)-7H-pyrrolo[2,3-d]pyrimidine-5-carbonitrile] | 10 to 100
CCNc1nc(Nc2cc3c(cc2OC)CN(C)C3=O)nc2[nH]cc(C(F)(F)F)c12 [Example 134, 6-((4-(ethylamino)-5-(trifluoromethyl)-7H-pyrrolo[2,3-d]pyrimidine-2-yl)amino)-5-methoxy-2-methylisoindolin-1-one] | > 100
CCNc1nc(Nc2cc(F)c(C(=O)N3CCC(N4CCOCC4)CC3)cc2OC)nc2[nH]cc(C#N)c12 [Example 7, 4-(ethylamino)-2-((5-fluoro-2-methoxy-4-(4-morpholinopiperidine-1-carbonyl)phenyl)amino)-7H-pyrrolo[2,3-d]pyrimidine-5-carbonitrile] | < 10
CC1(Oc2nc(Nc3cnn([C@H]4CCN(C5COC5)C[C@@H]4F)c3)nc3[nH]cc(C#N)c23)CC1 [Example 101, 2-((1-((3S,4S)-3-fluoro-1-(oxetane-3-yl)piperidine-4-yl)-1H-pyrazole-4-yl)amino)-4-(1-methylcyclopropoxy)-7H-pyrrolo[2,3-d]pyrimidine-5-carbonitrile] | < 10
COc1cc(C(=O)N2CCO[C@H](C)C2)ccc1Nc1nc(OC2(C)CC2)c2c(C#N)c[nH]c2n1 [Example 98, (R)-2-((2-methoxy-4-(2-methylmorpholine-4-carbonyl)phenyl)amino)-4-(1-methylcyclopropoxy)-7H-pyrrolo[2,3d]carbonitrile] | 10 to 100
CC1(Oc2nc(Nc3cnn([C@H]4CCN(C5COC5)C[C@@H]4F)c3Cl)nc3[nH]cc(C#N)c23)CC1 [Example 96, 2-((5-chloro-1-((3S,4S)-3-fluoro-1-(oxetane-3-yl)piperidine-4-yl)-1H-pyrazole-4-yl)amino)(1-methylcyclopropoxy)-7H-pyrrolo[2,3-]pyrimidine-5-carbonitrile] | < 10
CCNc1nc(Nc2ccc(C(=O)N3C[C@@H](C)O[C@@H](C)C3)cc2OC)nc2[nH]cc(C(F)(F)F)c12 [Example 109] | > 100
COc1cc(C(=O)N2CCOCC2)ccc1Nc1nc(O[C@H]2CCOC2)c2c(C#N)c[nH]c2n1 [Example 88, (S)-2-((2-methoxy-4-(morpholine-4-carbonyl)phenyl)amino)-4-((tetrahydrofuran-3-yl)oxy)-7H-pyrrolo[2,3-d]pyrimidine-5-carbonitrile] | < 10
COc1cc(C(=O)N2CCC(N3CCOCC3)CC2)ccc1Nc1nc(OC(C)C)c2c(C#N)c[nH]c2n1 [Example 91, 4-isoprofoxy-2-((2-methoxy-4-(4-morpholinopiperidine-1-carbonyl)phenyl)amino)-7H-pyrrolo[2,3-d] pyrimidine-5-carbonitrile] | < 10
CNc1nc(Nc2cc(F)c(C(=O)N3CCN(C)C[C@H]3C)cc2OC)nc2[nH]cc(C#N)c12 [Example 80, (R)-2-((4-(2,4-dimethylpiperazine-1-carbonyl)-5-fluoro-2-methoxyphenyl)amino)-4-(methylamino)-7H-pyrrolo[2,3-d]pyrimidine-5-carbonitrile] | 10 to 100
COc1cc(C(=O)N2C[C@@H](C)O[C@@H](C)C2)ccc1Nc1nc(NC2(C)CC2)c2c(C#N)c[nH]c2n1 [Example 44, 2-((4-((2R,6S)-2,6-dimethylmorpholine-4-carbonyl)-2-methoxyphenyl)amino)-4-((1-methylcyclopropyl)amino)-7H-pyrrolo[2,3-d]pyrimidine-5-carbonitrile] | 10 to 100
CNc1nc(Nc2cc(F)c(C(=O)N3CCOCC3)cc2OC)nc2[nH]cc(C#N)c12 [Example 10, 2-((5-fluoro-2-methoxy-4-(morpholine-4-carbonyl)phenyl)amino)-4-(methylamino)-7H-pyrrolo[2,3-d]pyrimidine-5-carbonitrile] | < 10
COc1cc(C(=O)N2CCOCC2)ccc1Nc1nc(NC2(C)CC2)c2c(C#N)c[nH]c2n1 [Example 36, 2-((2-methoxy-4-(morpholine-4-carbonyl)phenyl)amino)-4-((1-methylcyclopropyl)amino)-7H-pyrrolo[2,3-d]pyrimidine-5-carbonitrile] | < 10

The remaining lines, values ahead:

IC50 [nM] | Structure (SMILES)
< 10 | CNc1nc(Nc2cn(C(C)(C)C#N)nc2Cl)nc2[nH]cc(C#N)c12 [Example 71, 2-((3-chloro-1-(2-cyanopropane-2-yl)-1H-pyrazole-4-yl)amino)-4-(methylamino)-7H-pyrrolo[2,3-d]pyrimidine-5-carbonitrile]
< 10 | CCNc1nc(Nc2cc(F)c(C(=O)NC3CCN(C(C)C)CC3)cc2OC)nc2[nH]cc(C#N)c12 [Example 68, 4-((5-cyano-4-(ethylamino)-7H-pyrrolo[2,3-d]pyrimidine-2-yl)amino)-2-fluoro-N-(1-isopropylpiperidine-4-yl)-5-methoxybenzamide]
< 10 | CNc1nc(Nc2cnn(CCOC)c2Cl)nc2[nH]cc(C#N)c12 [Example 59, 2-((5-chloro-1-(2-methoxyethyl)-1H-pyrazole-4-yl)amino)-4-(methylamino)-7H-pyrrolo[2,3-d]pyrimidine-5-carbonitrile]
< 10 | CCNc1nc(Nc2ccc(C(=O)N3CCC(F)(F)CC3)cc2OC)nc2[nH]cc(C#N)c12 [Example 27, 2-((4-(4,4-difluoropiperidine-1-carbonyl)-2-methoxyphenyl)amino)-4-(ethylamino)-7H-pyrrolo[2,3-d]pyrimidine-5-carbonitrile]
< 10 | CCNc1nc(Nc2cn(C(C)(C)C#N)nc2Cl)nc2[nH]cc(C#N)c12 [Example 72, 2-((3-chloro-1-(2-cyanopropane-2-yl)-1H-pyrazole-4-yl)amino)-4-(ethylamino)-7H-pyrrolo[2,3-d]pyrimidine-5-carbonitrile]
10 to 100 | CNc1nc(Nc2cn(C(C)C)nc2C)nc2[nH]cc(C#N)c12 [Example 30, 6-((1-isopropyl-3-methyl-1H-pyrazole-4-yl)amino)-4-(methylamino)-1H-pyrrolo[2,3-b]pyrimidine-3-carbonitrile]
> 100 | CCNc1nc(Nc2c(C)nn(C(C)(C)C#N)c2C)nc2[nH]cc(C#N)c12 [Example 78, 2-((1-(2-cyanopropane-2-yl)-3,5-dimethyl-1H-pyrazole-4-yl)amino)-4-(ethylamino)-7H-pyrrolo[2,3-d]pyrimidine-5-carbonitrile]
< 10 | CCNc1nc(Nc2ccc(C(=O)NC3CCN(C)CC3)cc2OC)nc2[nH]cc(C#N)c12 [Example 56, 4-((5-cyano-4-(ethylamino)-7H-pyrrolo[2,3-d]pyrimidine-2-yl)amino)-3-methoxy-N-(1-methylpiperidine-4-yl)benzamide]
< 10 | CCNc1nc(Nc2cnn(C(C)(C)C#N)c2Cl)nc2[nH]cc(C#N)c12 [Example 74, 2-((5-chloro-1-(2-cyanopropane-2-yl)-1H-pyrazole-4-yl)amino)-4-(ethylamino)-7H-pyrrolo[2,3-d]pyrimidine-5-carbonitrile]
> 100 | CCNc1nc(Nc2cc3c(cc2Cl)C(=O)N(C)C3)nc2[nH]cc(C#N)c12 [Example 128, 2-((6-chloro-2-methyl-1-oxoisoindol-5-yl)amino)-4-(ethylamino)-7H-pyrrolo[2,3-d]pyrimidine-5-carbonitrile]
< 10 | Cc1nn(C(C)C)cc1Nc1nc(NC2(C)CC2)c2c(C#N)c[nH]c2n1 [Example 39, 2-((1-isopropyl-3-methyl-1H-pyrazole-4-yl)amino)-4-((1-methylcyclopropyl)amino)-7H-pyrrolo[2,3-d]pyrimidine-5-carbonitrile]
< 10 | Cc1c(Nc2nc(NC3(C)CC3)c3c(C#N)c[nH]c3n2)cnn1C(C)C [Example 38, 2-((1-isopropyl-5-methyl-1H-pyrazole-4-yl)amino)-4-((1-methylcyclopropyl)amino)-7H-pyrrolo[2,3-d]pyrimidine-5-carbonitrile]
